Measurements published in patent publication US7387807B2, “Topical composition comprising feverfew” (Johnson & Johnson Consumer France, SAS, Roc Division, priority 1999, dated 2008).

Tests used:
Format in all cases: in vivo
Albino male CD-1 mice [1] = assay: Phorbol ester (TPA) induced mouse ear edema; details: 0.1% topical, 20 μL immediately after TPA; 5.5 hours
Method: The following experiments were carried out to test the effect of feverfew and substantially parthenolide-free feverfew in a phorbol ester PITA) induced edema assay. […] Albino male CD-1 mice, 7-9 weeks old, were used. A 0.005% (w/v) TPA solution was made in acetone. A 20 μL volume of this TPA solution was applied to the dorsal left ear of the mouse. Test compounds were applied immediately to the left ear (20 μL) after TPA in a 70% ethanol/propylene glycol vehicle. The right ear was not treated. The mice were sacrificed by CO2 inhalation (5.5 hours after TPA), the left and right ears were removed and a 7 mm biopsy was removed from each ear and weighed. The difference in biopsy weights between the right and left ear was calculated.

human volunteers [2] = assay: Prevention of UVB induced erythema, human study; details: 2 mg/cm^2 twice daily for 2 days before 2MED UVB
Method: Test product was applied to 5 different locations on the volar forearm twice daily for 2 consecutive days (2 mg/cm^2). The sites were exposed to 2MED UVB. Chromameter measurements were made prior to irradiation and at 18, 24, 42 and 48 hours post irradiation. The Colorimetric Erythema Index (CEI) was calculated for each time point. The following reductions in erythema were obtained: […]

human volunteers [3] = assay: Treatment of UVB induced erythema, human study; details: 2 mg/cm^2 immediately after 2MED UV and 5 and 8 hours later
Method: Ten healthy volunteers were irradiated with 2MED UV light on five distinct spots of the volar forearms. Test product was applied (2 mg/cm^2) on the irradiated sites immediately after irradiation, and 5 and 8 hours later. Erythema scores were measured before irradiation and 1, 4, 7 and 24 hours later. The following reductions in erythema were obtained: […]

human volunteers [4] = assay: Treatment of trauma (stratum corneum stripping) induced erythema, human study; details: applied for 2 hours immediately after stripping, total 2 hour period, compared to the vehicle
Method: Test product was applied to the ventral side of the forearm for 2 hours, immediately after stripping. Chromameter measurements were made prior to stripping and at 0.5, 1, 1.5 and 2 hours post stripping. The Colorimetric Erythema Index (CEI) was calculated for each time point. For the total 2 hour period, and compared to the vehicle, the following reductions in erythema were obtained: […]

Albino male CD-1 mice [5] = assay: Oxazolone contact hypersensitivity, mouse ear; details: 0.1% topical, 20 μL to ear 1 hour after challenge; ear weight at 24 hours
Method: The following experiments were carried out to test the effect of feverfew and substantially parthenolide-free feverfew in a contact […] assay. In this assay, the compositions of the invention were evaluated against hydrocortisone, a steroid known to inhibit contact hypersensitivity. Albino male CD-1 mice, 7-9 weeks old, were induce on the shaved abdomen with 50 μL of 3% oxazolone in acetone/corn oil Day 0). On Day 5, a 20 μL volume of 2% oxazolone in acetone was […] to the dorsal left ear of the mouse. […] The right ear was not treated. The mice were sacrificed by CO2 inhalation 24 hours after the oxazolone challenge, the left and right ears were removed and a 7 mm biopsy was taken from each ear and weighed. The difference in biopsy weights between the right and left ear was calculated. Antiinflammatory effects of compounds are evident as an inhibition of the increase in ear weight.

human volunteers [6] = assay: Prevention of trauma (stratum corneum stripping) induced erythema, human study; details: applied twice daily for 2 days before stripping, total 2 hour period, compared to the vehicle
Method: Test product was applied to the ventral side of the forearm twice daily for 2 consecutive days. […] Chromameter measurements were made prior to stripping and at 0.5, 1, 1.5 and 2 hours posts tripping. The Colorimetric Erythema Index (CEI) was calculated for each time point. For the total 2 hour period, and compared to the vehicle, the following reductions in erythema were obtained;

Albino male CD-1 mice [7] = assay: Arachidonic acid induced ear edema; details: 20 μl immediately after AA, 1 hour
Method: In this in vivo model, feverfew's ability to reduce arachidonic acid induced edema was compared to the known cycloxygenase/lipoxgenase inhibitor tepoxalin. Albino male CD-1 mice, 7-9 weeks old, were used. A 20% (w/v) arachidonic acid (AA) solution was made in acetone. A 20 μl volume of the AA was applied to the dorsal left ear of the mouse. Test compounds (20 μl) were applied immediately to the left ear after AA in a 70% ethanol/30% propylene glycol vehicle. The right ear was not treated. The mice were sacrificed by CO2 inhalation 1 hour after AA, the left and right ears were removed and a 7 mm biopsy was removed from each ear and weighed. The difference in biopsy weights between the right and left ear was calculated. Antiinflammatory effects of compounds are evident as an inhibition of the increase in ear weight.

With `C[C@@H]1C[C@H]2[C@@H]3CCC4=CC(=O)C=C[C@]4(C)[C@@]3(F)[C@@H](O)C[C@]2(C)[C@@]1(O)C(=O)CO` [Dexamethasone] the “TPA induced ear edema, inhibition of the increase in ear weight, Study 2” value (Albino male CD-1 mice [1]) was 97.2.

`C[C@]12CCC(=O)C=C1CC[C@@H]1[C@@H]2[C@@H](O)C[C@@]2(C)[C@H]1CC[C@]2(O)C(=O)CO` [Hydrocortisone] was tested, and the “TPA induced ear edema, inhibition of the increase in ear weight, Study 1” value (Albino male CD-1 mice [1]) was 96.9, the “Reduction of Erythema (%)” value (human volunteers [2]; 0.1%) was 2.5% and the “Reduction of Erythema (%)” value (human volunteers [2]; 1%) was 5.7%. The “Reduction of Erythema (%)” value (human volunteers [3]; 0.1%) was 3.2%, the “Reduction of Erythema (%)” value (human volunteers [3]; 1%) was 17.7% and the “Reduction of Erythema (%)” value (human volunteers [4]; 0.1%) was −3%. For the same compound, the “Reduction of Erythema (%)” value (human volunteers [4]; 1%) was 14%, the “Oxazolone contact hypersensitivity % Inhibition, Study 1” value (Albino male CD-1 mice [5]) was 96.9% and the “Oxazolone contact hypersensitivity % Inhibition, Study 2” value (Albino male CD-1 mice [5]) was 87.6%. The “Oxazolone contact hypersensitivity % Inhibition, Study 3” value (Albino male CD-1 mice [5]) was 91.0%, the “Reduction of Erythema (%)” value (human volunteers [6]; 0.1%) was 10% and the “Reduction of Erythema (%)” value (human volunteers [6]; 1%) was 19%.

`COc1ccc(-n2nc(CCC(=O)N(C)O)cc2-c2ccc(Cl)cc2)cc1` [Tepoxalin] was tested, and the “Arachidonic acid induced ear edema % Inhibition” value (Albino male CD-1 mice [7]; 0.1% topical) was 10.84%, the “Arachidonic acid induced ear edema % Inhibition” value (Albino male CD-1 mice [7]; 1.0% topical) was 42.38% and the “Arachidonic acid induced ear edema % Inhibition” value (Albino male CD-1 mice [7]; 2.0% topical) was 61.06%.
